From patent US20240270762A1, “PENICILLIN-BINDING PROTEIN INHIBITORS” (priority 2021, published 2024)
Values after ≈ are worked out from the molar mass of the structure shown.

Assays:
N. gonorrhoeae CDC-0197 = assay: Liquid broth MIC in Fastidious broth; conditions: Neisseria gonorrhoeae, CDC0197, read-out: Minimum Inhibitory Concentration (MIC), N. gonorrhoeae CDC-0197
Experimental: ATCC 49226, FA1090, MS11, WHO G, WHO L, and WHO M produce wild type or wild-type like PBP2. WHO K, WHO X, WHO Z, WHO Q, and CDC-0197 produce mosaic PBP2. Liquid broth-based assays were used for antibacterial testing of PBP inhibitors in Neisseria gonorrhoeae. Briefly, cryo-preserved bacterial cultures of clinical strains were streaked for isolation on Chocolate Agar (72 g/L (2×) GC Agar Base (BD #228950) and 2% (2×) Hemoglobin was autoclaved at 121° C. for 20 minutes to sterilize. Once cooled to ˜50° C. the 2×GC Agar Base and 2× Hemoglobin solutions are combined and 1% IsoVitaleX Enrichment (BD #211876) was added to the solution). Strains were incubated at 36° C. and 5% CO2 to allow growth of colonies, 24 hours before inoculum preparation. 2-fold serial dilutions of test compounds were conducted in a 96 well plate with a final volume of 75 μL per well at 2-fold the final desired concentration in Fastidious broth (Remel #R07664). For preparation of assay inoculum, a direct suspension was prepared by aseptically swabbing 10-15 colonies from agar plates into culture tubes containing 2 mL of fresh sterile saline. After the dilution plates were set up, direct suspensions were then diluted in a cuvette containing sterile saline and the optical density was measured at 600 nm. Inocula were diluted such that 75 μL of this culture in Fastidious broth results in a starting bacterial concentration of 5×10^5 CFU/mL when added to the dilution plates. The plates were incubated for ˜24 hours at 36° C. and 5% CO2.

A. baumannii CDC-0083 = assay: microbe, parasite or virus in culture; type: cell-based; conditions: Acinetobacter baumannii, CDC0083, read-out: MIC, A. baumannii CDC-0083
P. aeruginosa ATCC 27853 = assay: microbe, parasite or virus in culture; type: cell-based; conditions: Pseudomonas aeruginosa, ATCC27853, read-out: Minimum inhibitory concentration, P. aeruginosa ATCC 27853
N. gonorrhoeae WHO G = assay: Liquid broth MIC in Fastidious broth; conditions: Neisseria gonorrhoeae, read-out: Minimum Inhibitory Concentration (MIC), N. gonorrhoeae WHO G
[1] = tested on: N. gonorrhoeae ATCC 49226; assay: Liquid broth MIC in Fastidious broth; conditions: Neisseria gonorrhoeae, ATCC49226, read-out: Minimum Inhibitory Concentration (MIC), N. gonorrhoeae ATCC 49226
[2] = tested on: B. thailandensis ATCC 700388; assay: microbe, parasite or virus in culture; type: cell-based; conditions: Burkholderia thailandensis, ATCC700388, read-out: Minimum inhibitory concentration (MIC), B. thailandensis ATCC 700388
A. baumannii CDC-0033 = assay: microbe, parasite or virus in culture; type: cell-based; conditions: Acinetobacter baumannii, CDC0033, read-out: MIC, A. baumannii CDC-0033
[3] = tested on: B. humptydooensis ATCC BAA-2767; assay: microbe, parasite or virus in culture; type: cell-based; conditions: Burkholderia humptydooensis, ATCCBAA2767, read-out: Minimum inhibitory concentration (MIC), B. humptydooensis ATCC BAA-2767
N. gonorrhoeae WHO X = assay: Liquid broth MIC in Fastidious broth; conditions: Neisseria gonorrhoeae, read-out: Minimum Inhibitory Concentration (MIC), N. gonorrhoeae WHO X
Experimental: Liquid broth-based assays were used for antibacterial testing of PBP inhibitors in Neisseria gonorrhoeae. Briefly, cryo-preserved bacterial cultures of clinical strains were streaked for isolation on Chocolate Agar (72 g/L (2×) GC Agar Base (BD #228950) and 2% (2×) Hemoglobin was autoclaved at 121° C. for 20 minutes to sterilize. Once cooled to ˜50° C. the 2×GC Agar Base and 2× Hemoglobin solutions are combined and 1% IsoVitaleX Enrichment (BD #211876) was added to the solution). Strains were incubated at 36° C. and 5% CO2 to allow growth of colonies, 24 hours before inoculum preparation. 2-fold serial dilutions of test compounds were conducted in a 96 well plate with a final volume of 75 μL per well at 2-fold the final desired concentration in Fastidious broth (Remel #R07664). For preparation of assay inoculum, a direct suspension was prepared by aseptically swabbing 10-15 colonies from agar plates into culture tubes containing 2 mL of fresh sterile saline. After the dilution plates were set up, direct suspensions were then diluted in a cuvette containing sterile saline and the optical density was measured at 600 nm. Inocula were diluted such that 75 μL of this culture in Fastidious broth results in a starting bacterial concentration of 5×10^5 CFU/mL when added to the dilution plates. The plates were incubated for ˜24 hours at 36° C. and 5% CO2.

P. aeruginosa CDC-0110 = assay: microbe, parasite or virus in culture; type: cell-based; conditions: Pseudomonas aeruginosa, CDC0110, read-out: Minimum inhibitory concentration, P. aeruginosa CDC-0110
P. aeruginosa CDC-0054 = assay: microbe, parasite or virus in culture; type: cell-based; conditions: Pseudomonas aeruginosa, CDC0054, read-out: Minimum inhibitory concentration, P. aeruginosa CDC-0054
P. aeruginosa CDC-0095 = assay: microbe, parasite or virus in culture; type: cell-based; conditions: Pseudomonas aeruginosa, CDC0095, read-out: Minimum inhibitory concentration, P. aeruginosa CDC-0095
[4] = target: T1, PBP3 from Pseudomonas aeruginosa (PAO1) (Pseudomonas aeruginosa, UniProt G3XD46); assay: Bocillin-FL fluorescence polarization competition binding, P. aeruginosa PBP3; conditions: Binding affinity to P. aeruginosa PBP3; fluorescence polarization competition binding assay using Bocillin-FL; read-out: P. aeruginosa PBP3 Potency
T1 construct: made in house
How it was run: (§1)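 Purified PBPs pre-incubated with inhibitor (E. coli PBP3 1.5 μM, 30 min; P. aeruginosa PBP3 0.75 μM, A. baumannii PBP1a 1 μM and PBP3 0.2 μM, 15 min), then Bocillin-FL 0.1 μM (0.05 μM for PBP1a) added; FP read up to 60 min. EC50 = concentration halving bound Bocillin-FL.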

[5] = target: T2, PBP3 from Escherichia coli (K-12) (Escherichia coli, UniProt P0AD68); assay: Bocillin-FL fluorescence polarization competition binding, E. coli PBP3
T2 construct: made in house
How it was run: as §1

P. aeruginosa CDC-0090 = assay: microbe, parasite or virus in culture; type: cell-based; conditions: Pseudomonas aeruginosa, CDC0090, read-out: Minimum inhibitory concentration, P. aeruginosa CDC-0090

T2 sequence (P0AD68 1-577): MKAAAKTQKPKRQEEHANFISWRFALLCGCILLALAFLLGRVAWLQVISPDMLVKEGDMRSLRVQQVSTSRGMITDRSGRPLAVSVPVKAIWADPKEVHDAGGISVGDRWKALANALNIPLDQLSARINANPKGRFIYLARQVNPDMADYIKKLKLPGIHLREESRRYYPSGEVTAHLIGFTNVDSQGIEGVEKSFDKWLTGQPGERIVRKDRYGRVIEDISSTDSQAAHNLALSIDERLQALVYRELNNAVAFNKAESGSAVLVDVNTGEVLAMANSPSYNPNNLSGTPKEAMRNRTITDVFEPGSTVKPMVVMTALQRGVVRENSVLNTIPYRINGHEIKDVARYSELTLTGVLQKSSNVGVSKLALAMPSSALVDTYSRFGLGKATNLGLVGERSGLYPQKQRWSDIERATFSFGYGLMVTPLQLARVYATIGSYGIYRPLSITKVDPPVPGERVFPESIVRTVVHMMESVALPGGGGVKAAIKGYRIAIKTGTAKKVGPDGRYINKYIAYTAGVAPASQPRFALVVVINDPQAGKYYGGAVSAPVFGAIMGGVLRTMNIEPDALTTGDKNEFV
T1 sequence (G3XD46 whole entry): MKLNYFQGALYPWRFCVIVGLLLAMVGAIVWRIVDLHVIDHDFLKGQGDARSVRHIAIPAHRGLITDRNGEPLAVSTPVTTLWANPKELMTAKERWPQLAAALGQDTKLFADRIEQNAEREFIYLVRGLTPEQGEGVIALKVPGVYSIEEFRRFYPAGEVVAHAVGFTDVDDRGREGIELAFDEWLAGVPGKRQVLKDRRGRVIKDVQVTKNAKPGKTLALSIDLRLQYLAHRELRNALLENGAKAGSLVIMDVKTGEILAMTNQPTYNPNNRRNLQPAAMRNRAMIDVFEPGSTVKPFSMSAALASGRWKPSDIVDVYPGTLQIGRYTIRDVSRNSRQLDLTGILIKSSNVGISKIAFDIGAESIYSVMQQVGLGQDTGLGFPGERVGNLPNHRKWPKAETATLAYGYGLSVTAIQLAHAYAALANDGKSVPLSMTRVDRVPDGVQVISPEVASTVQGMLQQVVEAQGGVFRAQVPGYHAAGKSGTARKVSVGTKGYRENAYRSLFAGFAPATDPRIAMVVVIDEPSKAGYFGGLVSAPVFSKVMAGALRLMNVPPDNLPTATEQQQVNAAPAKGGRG

Compound	MIC (N. gonorrhoeae CDC-0197) [µg/mL]	MIC (A. baumannii CDC-0083) [µg/mL]	MIC (P. aeruginosa ATCC 27853) [µg/mL]	MIC (N. gonorrhoeae WHO G) [µg/mL]	MIC [1] [µg/mL]	MIC [2] [µg/mL]	MIC (A. baumannii CDC-0033) [µg/mL]	MIC [3] [µg/mL]	MIC (N. gonorrhoeae WHO X) [µg/mL]	MIC (P. aeruginosa CDC-0110) [µg/mL]	MIC (P. aeruginosa CDC-0054) [µg/mL]	MIC (P. aeruginosa CDC-0095) [µg/mL]	IC50 [4] [µM]	EC50 [5] [µM]	MIC (P. aeruginosa CDC-0090) [µg/mL]
O=C(CN1CCN(C(=O)NC(C(=O)N[C@H]2Cc3ccc(F)c(C(=O)O)c3OB2O)c2cc(F)c(O)c(O)c2Cl)C(=O)C1=O)Nc1ccc(O)cc1 (stereo partly drawn) [Example 230, (3R)-3-(2-(2-chloro-5-fluoro-3,4-dihydroxyphenyl)-2-(4-(2-((4-hydroxyphenyl)amino)-2-oxoethyl)-2,3-dioxopiperazine-1-carboxamido)acetamido)-7-fluoro-2-hydroxy-3,4-dihydro-2H-benzo[e][1,2]oxaborinine-8-carboxylic acid]	16 to 32 (≈ 21.9 to 43.7 µM)	< 1	< 1	4 to 8 (≈ 5.47 to 10.9 µM)	4 to 8 (≈ 5.47 to 10.9 µM)	2 to 4 (≈ 2.73 to 5.47 µM)	2 to 4 (≈ 2.73 to 5.47 µM)	2 to 4 (≈ 2.73 to 5.47 µM)	> 64	< 1	< 1	< 1	< 10	< 10	2 to 4 (≈ 2.73 to 5.47 µM)
O=C(CN1CCN(C(=O)NC(C(=O)N[C@H]2Cc3ccc(F)c(C(=O)O)c3OB2O)c2cc(F)c(O)c(O)c2Cl)C(=O)C1=O)Nc1cccc(O)c1 (stereo partly drawn) [Example 231, (3R)-3-(2-(2-chloro-5-fluoro-3,4-dihydroxyphenyl)-2-(4-(2-((3-hydroxyphenyl)amino)-2-oxoethyl)-2,3-dioxopiperazine-1-carboxamido)acetamido)-7-fluoro-2-hydroxy-3,4-dihydro-2H-benzo[e][1,2]oxaborinine-8-carboxylic acid]	16 to 32 (≈ 21.9 to 43.7 µM)	> 128	< 1	4 to 8 (≈ 5.47 to 10.9 µM)	16 to 32 (≈ 21.9 to 43.7 µM)	2 to 4 (≈ 2.73 to 5.47 µM)	8 to 16 (≈ 10.9 to 21.9 µM)	8 to 16 (≈ 10.9 to 21.9 µM)	> 64	< 1	2 to 4 (≈ 2.73 to 5.47 µM)	2 to 4 (≈ 2.73 to 5.47 µM)	< 10	< 10	2 to 4 (≈ 2.73 to 5.47 µM)
O=C(CN1CCN(C(=O)NC(C(=O)N[C@H]2Cc3ccc(F)c(C(=O)O)c3OB2O)c2cc(F)c(O)c(O)c2Cl)C(=O)C1=O)Nc1ccccc1 (stereo partly drawn) [Example 232, (3R)-3-(2-(2-chloro-5-fluoro-3,4-dihydroxyphenyl)-2-(2,3-dioxo-4-(2-oxo-2-(phenylamino)ethyl)piperazine-1-carboxamido)acetamido)-7-fluoro-2-hydroxy-3,4-dihydro-2H-benzo[e][1,2]oxaborinine-8-carboxylic acid]	> 64	> 128	2 to 4 (≈ 2.79 to 5.59 µM)	16 to 32 (≈ 22.4 to 44.7 µM)	16 to 32 (≈ 22.4 to 44.7 µM)	< 1	32 to 64 (≈ 44.7 to 89.4 µM)	> 128	> 64	2 to 4 (≈ 2.79 to 5.59 µM)	2 to 4 (≈ 2.79 to 5.59 µM)	2 to 4 (≈ 2.79 to 5.59 µM)	< 10	< 10	2 to 4 (≈ 2.79 to 5.59 µM)
O=C(CN1CCN(C(=O)NC(C(=O)N[C@H]2Cc3ccc(F)c(C(=O)O)c3OB2O)c2cc(F)c(O)c(O)c2Cl)C(=O)C1=O)Nc1ccncc1 (stereo partly drawn) [Example 233, (3R)-3-(2-(2-chloro-5-fluoro-3,4-dihydroxyphenyl)-2-(2,3-dioxo-4-(2-oxo-2-(pyridin-4-ylamino)ethyl)piperazine-1-carboxamido)acetamido)-7-fluoro-2-hydroxy-3,4-dihydro-2H-benzo[e][1,2]oxaborinine-8-carboxylic acid]	16 to 32 (≈ 22.3 to 44.6 µM)	< 1	< 1	4 to 8 (≈ 5.58 to 11.2 µM)	4 to 8 (≈ 5.58 to 11.2 µM)	2 to 4 (≈ 2.79 to 5.58 µM)	8 to 16 (≈ 11.2 to 22.3 µM)	< 1	> 64	< 1	< 1	2 to 4 (≈ 2.79 to 5.58 µM)	< 10	< 10	< 1
